What was measured:
[1] = system: CDK1; parameters: method as in Gao et al. [42]; settings: ref Gao et al. [42], cited from earlier work
[2] = system: ROCK2; parameters: method as in Gao et al. [42]; settings: ref Gao et al. [42], cited from earlier work
[3] = molecular target: T1, FRK (Homo sapiens, UniProt P42685); parameters: method as in Gao et al. [42]; settings: ref Gao et al. [42], cited from earlier work
T1 construct: purchased SignalChem F14-11G-10

[4] = system: BRSK1; parameters: method as in Gao et al. [42]; settings: ref Gao et al. [42], cited from earlier work
[5] = system: CAMK2D; parameters: method as in Gao et al. [42]; settings: ref Gao et al. [42], cited from earlier work
[6] = system: Aurora B; parameters: method as in Gao et al. [42]; settings: ref Gao et al. [42], cited from earlier work
[7] = system: IRAK4; parameters: method as in Gao et al. [42]; settings: ref Gao et al. [42], cited from earlier work
[8] = molecular target: TRKA (Homo sapiens, UniProt P04629); parameters: method as in Gao et al. [42]; settings: ref Gao et al. [42], cited from earlier work
[9] = system: TSSK1B; parameters: method as in Gao et al. [42]; settings: ref Gao et al. [42], cited from earlier work
[10] = system: PHKG2; parameters: method as in Gao et al. [42]; settings: ref Gao et al. [42], cited from earlier work
[11] = system: PIM3; parameters: method as in Gao et al. [42]; settings: ref Gao et al. [42], cited from earlier work
[12] = system: IKKb; parameters: method as in Gao et al. [42]; settings: ref Gao et al. [42], cited from earlier work
[13] = system: CAMK1; parameters: method as in Gao et al. [42]; settings: ref Gao et al. [42], cited from earlier work
[14] = system: GSK3b; parameters: method as in Gao et al. [42]; settings: ref Gao et al. [42], cited from earlier work
[15] = molecular target: FLT4 (Homo sapiens, UniProt P35916); parameters: method as in Gao et al. [42]; settings: ref Gao et al. [42], cited from earlier work
[16] = system: FER; parameters: method as in Gao et al. [42]; settings: ref Gao et al. [42], cited from earlier work
[17] = system: MAP4K2; parameters: method as in Gao et al. [42]; settings: ref Gao et al. [42], cited from earlier work
[18] = molecular target: T2, Aurora A (Homo sapiens, UniProt O14965); experiment: ADP-Glo Kinase Assay, tivozanib off-target testing; assay type: biochemical; settings: read-out: Experimental validation pIC50 (converted)
T2 construct: purchased SignalChem A28-18G-10
T2 sequence (O14965 1-403): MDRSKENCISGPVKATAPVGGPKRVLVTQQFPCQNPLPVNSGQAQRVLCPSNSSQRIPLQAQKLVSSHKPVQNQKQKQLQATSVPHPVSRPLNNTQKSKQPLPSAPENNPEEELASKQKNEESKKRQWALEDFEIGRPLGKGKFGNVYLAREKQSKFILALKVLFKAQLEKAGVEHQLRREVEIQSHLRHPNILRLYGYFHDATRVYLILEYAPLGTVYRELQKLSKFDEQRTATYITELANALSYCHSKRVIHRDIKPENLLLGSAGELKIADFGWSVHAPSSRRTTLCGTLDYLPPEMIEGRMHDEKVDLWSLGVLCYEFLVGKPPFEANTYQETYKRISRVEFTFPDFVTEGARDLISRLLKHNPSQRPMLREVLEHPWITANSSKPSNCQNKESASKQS
Procedure: (§1) The kinase inhibitors were dissolved to 1X Kinase Buffer with 5% DMSO by transferring 200nL of the buffer using ECHO525 Liquid handler (Labcyte). […] The dissolved kinases and 2.5X kinase buffer controls were transferred at 400nL using ECHO525. […] The 2.5X ATP/substrate working stocks were transferred at 400nL using ECHO525.
(§2) For the ADP detection, 1 μl ADP-Glo reagent was dispensed (Thermo Scientific Multidrop Combi nL). […] Next, 2 μl kinase detection reagent was dispensed with Thermo Scientific Multidrop Combi nL.
(§3) Kinase assay, kinase dilution and substrate buffers were as indicated by the manufacturer (Promega). The assays were performed in the same way as with the kinases from the Kinase Selectivity Profiling System + ADP-Glo Assay kits (see previous section). All the assays were done in three individual experiments, each having three replicates.
(§4) IC50 values from all the experiments were obtained with GraphPad Prism 7 (GraphPad Software, Inc. California, USA) using inhibitor vs. response—variable slope (four parameters) analysis. […] X-axis scale was set to log10.

[19] = system: CDK2; parameters: method as in Gao et al. [42]; settings: ref Gao et al. [42], cited from earlier work
[20] = system: AKT1; parameters: method as in Gao et al. [42]; settings: ref Gao et al. [42], cited from earlier work
[21] = molecular target: FYN A (Homo sapiens, UniProt P06241); experiment: ADP-Glo Kinase Assay, tivozanib off-target testing; assay type: biochemical; settings: read-out: Experimental validation pIC50 (converted)
Procedure: as §1, §2, §3, §4

[22] = system: FES; parameters: method as in Gao et al. [42]; settings: ref Gao et al. [42], cited from earlier work
[23] = molecular target: InsR (Homo sapiens, UniProt P06213); parameters: method as in Gao et al. [42]; settings: ref Gao et al. [42], cited from earlier work
[24] = molecular target: FAK (Homo sapiens, UniProt Q05397); parameters: method as in Gao et al. [42]; settings: ref Gao et al. [42]; cited from earlier work
[25] = molecular target: BRK (Homo sapiens, UniProt Q13882); parameters: method as in Gao et al. [42]; settings: ref Gao et al. [42], cited from earlier work
[26] = system: CHUK; parameters: method as in Gao et al. [42]; settings: ref Gao et al. [42], cited from earlier work
[27] = system: SGK1; parameters: method as in Gao et al. [42]; settings: ref Gao et al. [42], cited from earlier work
[28] = molecular target: ITK (Homo sapiens, UniProt Q08881); parameters: method as in Gao et al. [42]; settings: ref Gao et al. [42]; cited from earlier work
[29] = molecular target: SYK (Homo sapiens, UniProt P43405); parameters: method as in Gao et al. [42]; settings: ref Gao et al. [42]; cited from earlier work

Sequence of FLT4 (P35916 25-1363): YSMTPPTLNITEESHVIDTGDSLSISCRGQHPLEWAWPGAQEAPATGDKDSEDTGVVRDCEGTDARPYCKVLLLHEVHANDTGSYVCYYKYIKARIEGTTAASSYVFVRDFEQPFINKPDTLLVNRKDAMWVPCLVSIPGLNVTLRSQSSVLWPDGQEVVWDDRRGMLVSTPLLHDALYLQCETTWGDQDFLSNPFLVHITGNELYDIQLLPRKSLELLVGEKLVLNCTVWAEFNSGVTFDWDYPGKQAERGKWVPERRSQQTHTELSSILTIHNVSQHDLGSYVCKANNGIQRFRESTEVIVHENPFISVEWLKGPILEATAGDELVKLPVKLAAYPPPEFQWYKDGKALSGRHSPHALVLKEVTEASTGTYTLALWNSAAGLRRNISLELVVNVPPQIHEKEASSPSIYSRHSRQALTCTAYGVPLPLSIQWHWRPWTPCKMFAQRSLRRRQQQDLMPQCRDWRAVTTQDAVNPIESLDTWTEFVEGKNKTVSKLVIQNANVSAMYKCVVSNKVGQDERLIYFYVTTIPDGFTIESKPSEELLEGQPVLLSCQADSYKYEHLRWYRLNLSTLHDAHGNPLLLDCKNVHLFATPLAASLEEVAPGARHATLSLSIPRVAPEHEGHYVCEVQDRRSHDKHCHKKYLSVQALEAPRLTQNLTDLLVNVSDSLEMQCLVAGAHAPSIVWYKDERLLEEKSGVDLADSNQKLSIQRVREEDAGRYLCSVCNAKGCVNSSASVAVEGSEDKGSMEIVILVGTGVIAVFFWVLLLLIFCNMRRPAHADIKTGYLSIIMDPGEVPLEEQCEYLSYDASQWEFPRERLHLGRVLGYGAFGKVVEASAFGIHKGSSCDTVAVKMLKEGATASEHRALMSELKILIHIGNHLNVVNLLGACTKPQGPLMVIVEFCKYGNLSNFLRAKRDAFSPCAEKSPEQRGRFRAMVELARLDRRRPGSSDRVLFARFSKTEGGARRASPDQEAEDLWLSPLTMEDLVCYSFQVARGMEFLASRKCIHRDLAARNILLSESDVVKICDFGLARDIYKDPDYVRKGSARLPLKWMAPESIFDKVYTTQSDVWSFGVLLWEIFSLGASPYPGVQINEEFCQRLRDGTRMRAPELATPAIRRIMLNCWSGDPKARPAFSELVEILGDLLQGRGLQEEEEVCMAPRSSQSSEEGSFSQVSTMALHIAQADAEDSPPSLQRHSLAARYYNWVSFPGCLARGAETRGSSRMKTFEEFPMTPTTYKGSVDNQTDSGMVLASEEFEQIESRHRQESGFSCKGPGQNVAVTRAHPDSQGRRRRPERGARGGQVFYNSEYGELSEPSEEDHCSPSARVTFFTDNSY
T1 sequence (P42685 whole entry): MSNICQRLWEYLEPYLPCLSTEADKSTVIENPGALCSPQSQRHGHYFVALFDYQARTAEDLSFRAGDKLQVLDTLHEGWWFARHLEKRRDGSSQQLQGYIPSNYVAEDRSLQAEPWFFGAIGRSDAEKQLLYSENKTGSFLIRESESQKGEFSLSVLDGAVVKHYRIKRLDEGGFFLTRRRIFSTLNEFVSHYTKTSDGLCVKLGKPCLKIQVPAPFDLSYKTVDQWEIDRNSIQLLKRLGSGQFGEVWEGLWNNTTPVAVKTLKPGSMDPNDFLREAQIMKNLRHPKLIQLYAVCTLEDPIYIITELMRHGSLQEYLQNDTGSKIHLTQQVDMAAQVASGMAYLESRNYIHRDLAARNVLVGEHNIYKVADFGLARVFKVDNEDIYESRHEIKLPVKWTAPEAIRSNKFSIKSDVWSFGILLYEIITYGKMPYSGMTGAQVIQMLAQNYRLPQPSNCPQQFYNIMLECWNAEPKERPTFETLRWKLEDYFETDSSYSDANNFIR
Sequence of BRK (Q13882 whole entry): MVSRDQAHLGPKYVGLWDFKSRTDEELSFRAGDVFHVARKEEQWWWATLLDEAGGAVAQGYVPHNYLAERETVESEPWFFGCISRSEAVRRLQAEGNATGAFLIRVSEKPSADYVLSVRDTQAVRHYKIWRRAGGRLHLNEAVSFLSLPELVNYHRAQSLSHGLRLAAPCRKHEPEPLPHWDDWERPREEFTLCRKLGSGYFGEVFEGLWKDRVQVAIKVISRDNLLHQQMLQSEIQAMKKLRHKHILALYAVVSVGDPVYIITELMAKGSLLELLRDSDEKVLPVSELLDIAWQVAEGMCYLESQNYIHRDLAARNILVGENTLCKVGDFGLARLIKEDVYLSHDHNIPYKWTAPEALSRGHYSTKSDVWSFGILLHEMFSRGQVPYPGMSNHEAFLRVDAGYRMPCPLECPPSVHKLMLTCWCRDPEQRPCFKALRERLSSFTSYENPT
Sequence of InsR (P06213 28-1382): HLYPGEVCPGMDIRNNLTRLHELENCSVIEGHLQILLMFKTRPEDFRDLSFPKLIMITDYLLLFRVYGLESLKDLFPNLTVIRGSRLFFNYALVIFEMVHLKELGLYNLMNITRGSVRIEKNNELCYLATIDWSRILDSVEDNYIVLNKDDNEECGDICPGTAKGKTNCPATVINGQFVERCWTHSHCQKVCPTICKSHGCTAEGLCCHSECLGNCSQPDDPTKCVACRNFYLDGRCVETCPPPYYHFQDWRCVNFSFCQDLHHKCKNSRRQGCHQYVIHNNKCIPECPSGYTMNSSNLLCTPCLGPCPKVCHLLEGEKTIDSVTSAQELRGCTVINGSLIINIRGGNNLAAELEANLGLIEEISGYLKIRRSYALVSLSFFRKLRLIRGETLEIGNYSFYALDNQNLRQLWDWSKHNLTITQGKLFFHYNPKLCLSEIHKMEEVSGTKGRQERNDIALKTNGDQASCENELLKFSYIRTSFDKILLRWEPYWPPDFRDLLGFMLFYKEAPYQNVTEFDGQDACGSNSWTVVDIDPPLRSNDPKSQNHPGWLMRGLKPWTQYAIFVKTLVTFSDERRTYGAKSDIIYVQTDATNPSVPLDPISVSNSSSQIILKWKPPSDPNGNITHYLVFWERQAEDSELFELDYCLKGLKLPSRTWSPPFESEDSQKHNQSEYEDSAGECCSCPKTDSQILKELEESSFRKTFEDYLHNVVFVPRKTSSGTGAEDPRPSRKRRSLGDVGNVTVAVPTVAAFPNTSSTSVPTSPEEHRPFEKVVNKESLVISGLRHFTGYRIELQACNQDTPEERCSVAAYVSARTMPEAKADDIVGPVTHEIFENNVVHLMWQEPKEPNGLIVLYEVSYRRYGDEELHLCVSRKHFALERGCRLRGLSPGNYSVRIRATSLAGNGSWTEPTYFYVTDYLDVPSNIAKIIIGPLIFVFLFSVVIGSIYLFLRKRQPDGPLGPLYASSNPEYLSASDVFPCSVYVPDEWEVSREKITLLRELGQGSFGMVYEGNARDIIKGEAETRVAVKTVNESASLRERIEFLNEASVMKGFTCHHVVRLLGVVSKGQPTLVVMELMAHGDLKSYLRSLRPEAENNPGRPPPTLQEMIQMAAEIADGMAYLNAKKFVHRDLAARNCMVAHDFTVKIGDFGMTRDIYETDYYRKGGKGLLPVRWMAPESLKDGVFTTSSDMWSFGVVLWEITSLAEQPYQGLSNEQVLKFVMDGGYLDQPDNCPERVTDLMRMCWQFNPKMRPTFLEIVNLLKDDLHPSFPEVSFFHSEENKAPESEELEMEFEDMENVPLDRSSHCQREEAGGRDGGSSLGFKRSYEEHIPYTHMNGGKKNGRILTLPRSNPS
Sequence of TRKA (P04629 33-796): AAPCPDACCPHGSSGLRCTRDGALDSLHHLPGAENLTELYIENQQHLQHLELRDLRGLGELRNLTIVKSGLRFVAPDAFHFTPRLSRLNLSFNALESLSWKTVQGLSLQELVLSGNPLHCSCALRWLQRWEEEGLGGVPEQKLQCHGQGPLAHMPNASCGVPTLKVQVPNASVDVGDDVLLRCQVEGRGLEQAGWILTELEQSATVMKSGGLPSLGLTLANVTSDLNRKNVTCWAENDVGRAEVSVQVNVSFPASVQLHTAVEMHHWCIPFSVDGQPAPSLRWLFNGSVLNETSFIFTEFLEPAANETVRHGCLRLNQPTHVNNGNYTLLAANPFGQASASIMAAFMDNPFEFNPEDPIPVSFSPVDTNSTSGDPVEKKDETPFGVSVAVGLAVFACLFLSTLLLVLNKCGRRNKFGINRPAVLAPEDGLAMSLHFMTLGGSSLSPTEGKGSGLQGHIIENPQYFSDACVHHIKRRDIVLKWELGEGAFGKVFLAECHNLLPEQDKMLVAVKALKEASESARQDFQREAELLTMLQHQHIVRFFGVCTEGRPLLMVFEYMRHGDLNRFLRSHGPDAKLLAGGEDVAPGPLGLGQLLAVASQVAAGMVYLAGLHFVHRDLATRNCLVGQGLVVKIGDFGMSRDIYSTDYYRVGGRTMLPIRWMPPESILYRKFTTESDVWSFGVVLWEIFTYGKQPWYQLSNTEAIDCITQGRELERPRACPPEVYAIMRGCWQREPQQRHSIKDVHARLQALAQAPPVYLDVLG
Sequence of ITK (Q08881 whole entry): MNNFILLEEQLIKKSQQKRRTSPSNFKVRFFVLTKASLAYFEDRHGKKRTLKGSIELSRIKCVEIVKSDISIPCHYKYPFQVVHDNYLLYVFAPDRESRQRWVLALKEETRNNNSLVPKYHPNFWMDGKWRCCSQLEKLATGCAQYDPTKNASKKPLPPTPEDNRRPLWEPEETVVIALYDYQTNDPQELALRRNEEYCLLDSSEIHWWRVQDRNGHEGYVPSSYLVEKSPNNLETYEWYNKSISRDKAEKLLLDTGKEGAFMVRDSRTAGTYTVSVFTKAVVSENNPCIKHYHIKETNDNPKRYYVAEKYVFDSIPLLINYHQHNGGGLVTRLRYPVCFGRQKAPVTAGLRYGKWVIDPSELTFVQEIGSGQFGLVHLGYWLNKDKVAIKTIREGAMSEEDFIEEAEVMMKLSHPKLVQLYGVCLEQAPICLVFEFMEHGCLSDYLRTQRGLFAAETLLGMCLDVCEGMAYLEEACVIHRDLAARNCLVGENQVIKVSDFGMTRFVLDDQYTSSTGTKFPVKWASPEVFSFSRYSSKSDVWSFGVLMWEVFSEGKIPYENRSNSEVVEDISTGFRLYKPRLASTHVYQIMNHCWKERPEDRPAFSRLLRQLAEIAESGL

In the case of `COc1cc2nccc(Oc3ccc(NC(=O)Nc4cc(C)on4)c(Cl)c3)c2cc1OC` [TIVOZANIB, Tivozanib], the “Gao et al. % of activity remaining at 1 µM” value ([1]; 1 µM) is given as 100%, the “Gao et al. % of activity remaining at 10 µM” value ([1]; 10 µM) is given as 94% and the “Gao et al. % of activity remaining at 1 µM” value ([2]; 1 µM) is given as 76%. For the same compound, the “Gao et al. % of activity remaining at 10 µM” value ([2]; 10 µM) was 51%, the “Gao et al. % of activity remaining at 1 µM” value ([3]; 1 µM) was 2% and the “Gao et al. % of activity remaining at 10 µM” value ([3]; 10 µM) was -3%. The “Gao et al. % of activity remaining at 1 µM” value ([4]; 1 µM) was 65%, the “Gao et al. % of activity remaining at 10 µM” value ([4]; 10 µM) was 46% and the “Gao et al. % of activity remaining at 1 µM” value ([5]; 1 µM) was 102%. For the same compound, the “Gao et al. % of activity remaining at 10 µM” value ([5]; 10 µM) was 90%, the “Gao et al. % of activity remaining at 1 µM” value ([6]; 1 µM) was 3% and the “Gao et al. % of activity remaining at 10 µM” value ([6]; 10 µM) was 1%. For the same compound, the “Gao et al. % of activity remaining at 1 µM” value ([7]; 1 µM) was 85%, the “Gao et al. % of activity remaining at 10 µM” value ([7]; 10 µM) was 47% and the “Gao et al. % of activity remaining at 1 µM” value ([8]; 1 µM) was 2%. For the same compound, the “Gao et al. % of activity remaining at 10 µM” value ([8]; 10 µM) was 0%, the “Gao et al. % of activity remaining at 1 µM” value ([9]; 1 µM) was 94% and the “Gao et al. % of activity remaining at 10 µM” value ([9]; 10 µM) was 82%. For the same compound, the “Gao et al. % of activity remaining at 1 µM” value ([10]; 1 µM) was 95%, the “Gao et al. % of activity remaining at 10 µM” value ([10]; 10 µM) was 66% and the “Gao et al. % of activity remaining at 1 µM” value ([11]; 1 µM) was 107%. The “Gao et al. % of activity remaining at 10 µM” value ([11]; 10 µM) was 105%, the “Gao et al. % of activity remaining at 1 µM” value ([12]; 1 µM) was 104% and the “Gao et al. % of activity remaining at 10 µM” value ([12]; 10 µM) was 102%. For the same compound, the “Gao et al. % of activity remaining at 1 µM” value ([13]; 1 µM) was 105%, the “Gao et al. % of activity remaining at 10 µM” value ([13]; 10 µM) was 41% and the “Gao et al. % of activity remaining at 1 µM” value ([14]; 1 µM) was 104%. The “Gao et al. % of activity remaining at 10 µM” value ([14]; 10 µM) was 94%, the “Gao et al. % of activity remaining at 1 µM” value ([15]; 1 µM) was -1% and the “Gao et al. % of activity remaining at 10 µM” value ([15]; 10 µM) was -1%. For the same compound, the “Gao et al. % of activity remaining at 1 µM” value ([16]; 1 µM) was 87%, the “Gao et al. % of activity remaining at 10 µM” value ([16]; 10 µM) was 16% and the “Gao et al. % of activity remaining at 1 µM” value ([17]; 1 µM) was 47%. For the same compound, the “Gao et al. % of activity remaining at 10 µM” value ([17]; 10 µM) was 17%, the IC50 [18] was greater than 12500 nM and the “Gao et al. % of activity remaining at 1 µM” value ([19]; 1 µM) was 98%. For the same compound, the “Gao et al. % of activity remaining at 10 µM” value ([19]; 10 µM) was 86%, the “Gao et al. % of activity remaining at 1 µM” value ([20]; 1 µM) was 97% and the “Gao et al. % of activity remaining at 10 µM” value ([20]; 10 µM) was 101%. The IC50 [21] was 398 nM, the “Gao et al. % of activity remaining at 1 µM” value ([22]; 1 µM) was 78% and the “Gao et al. % of activity remaining at 10 µM” value ([22]; 10 µM) was 46%. For the same compound, the “Gao et al. % of activity remaining at 1 µM” value ([23]; 1 µM) was 102%, the “Gao et al. % of activity remaining at 10 µM” value ([23]; 10 µM) was 29% and the “Gao et al. % of activity remaining at 10 µM” value [24] was 35%. For the same compound, the “Gao et al. % of activity remaining at 1 µM” value ([25]; 1 µM) was 2%, the “Gao et al. % of activity remaining at 10 µM” value ([25]; 10 µM) was -1% and the “Gao et al. % of activity remaining at 1 µM” value ([26]; 1 µM) was 91%. The “Gao et al. % of activity remaining at 10 µM” value ([26]; 10 µM) was 114%, the “Gao et al. % of activity remaining at 1 µM” value ([27]; 1 µM) was 83% and the “Gao et al. % of activity remaining at 10 µM” value ([27]; 10 µM) was 64%. For the same compound, the “Gao et al. % of activity remaining at 10 µM” value [28] was 51% and the “Gao et al. % of activity remaining at 10 µM” value [29] was 73%.

Source: PMC5560747, “Computational-experimental approach to drug-target interaction mapping: A case study on kinase inhibitors” (PLoS Computational Biology, 2017)
